Assay results from patent US5315038A, “Microorganism for breaking down moenomycins, a process for the breakdown, and the use of the breakdown products” (Hoechst Aktiengesellschaft, priority 1988, dated 1994).
Converted amounts (≈) assume the structure as drawn.

Experiments:
Moenomycinase [1] = assay: Moenomycinase activity (activation / inhibition); type: biochemical, Bacillus spec. DSM 4675
Text: The dissolved enzyme was further purified by chromatography. For anion exchange chromatography, the enzyme was bound to a column of DEAE-52 (Whatman) or MonoQHR-5-5 (Pharmacia) and then eluted with 0.2-1.0M NaCl. Presence of moenomycinase in the fractions was monitored by measuring the conversion of moenomycin A to MC, as described in Example 3, below. Further purification was achieved using hydrophobic chromatography. The enzyme was bound to phenylsepharose (Pharmacia), and was then eluted with 40% methanol. The enzyme was concentrated by ultrafiltration using an ultrafiltration membrane (Millipore) which retains molecules with molecular weights ≥10,000 Dalton.

transglycosylase [2] = target: T1, transglycosylase (Escherichia coli, UniProt P02919); assay: Another study: inhibition of the transglycosylase reaction, in vitro peptidoglycan synthesis; type: biochemical, E. coli K 12; details: Final Concentration 12.5 μg/l
Protocol: (§1) The inhibition of the polymerization of the peptidoglycan-sugar chains by the cleavage products was carried out by the assay described by Izaki (J. Biol. Chem. 243, 3180-3192, 1968) using lipid intermediates from the cell membrane of E. coli K 12.
Results of another study of the inhibition of the transglycosylase reaction by moenomycin cleavage products in vitro is shown in the following Table. The values in the Table show the inhibition of peptidoglycan-sugar chain synthesis in vitro. Decahydro MB is an analog of MB that has no double bonds in the alkyl chain.

Staph. aureus 503 = assay: Agar dilution test, Mueller-Hinton agar (minimum inhibitory concentration); type: cell-based; details: Staphylococcus aureus
Protocol: (§2) An agar dilution test with Mueller-Hinton agar was carried out to determine the antibacterial activities (Antibiotics in Laboratory Medicine, V. Lorian, Ed., Baltimore 1986, pages 1-10).

E. coli DC2 = assay: as above; type: cell-based; details: Escherichia coli
Protocol: as §2

Str. pyogenes 77 = assay: as above; type: cell-based; details: Streptococcus pyogenes
Protocol: as §2

transglycosylase [3] = target: T1, transglycosylase; assay: Transglycosylase assay (Izaki), inhibition of polymerization of the peptidoglycan-sugar chains; type: biochemical, E. coli K 12; details: moenomycin A 20 μg/ml; concentration of MB not stated separately
Protocol: as §1

Moenomycinase [4] = assay: Moenomycinase kinetics (Km for substrate); type: biochemical, Bacillus spec. DSM 4675; details: moenomycin A as substrate
[5] = tested on: biosynthesis of the peptidoglycan framework of the bacterial cell wall; details: cited from earlier work

T1 sequence (P02919 whole entry): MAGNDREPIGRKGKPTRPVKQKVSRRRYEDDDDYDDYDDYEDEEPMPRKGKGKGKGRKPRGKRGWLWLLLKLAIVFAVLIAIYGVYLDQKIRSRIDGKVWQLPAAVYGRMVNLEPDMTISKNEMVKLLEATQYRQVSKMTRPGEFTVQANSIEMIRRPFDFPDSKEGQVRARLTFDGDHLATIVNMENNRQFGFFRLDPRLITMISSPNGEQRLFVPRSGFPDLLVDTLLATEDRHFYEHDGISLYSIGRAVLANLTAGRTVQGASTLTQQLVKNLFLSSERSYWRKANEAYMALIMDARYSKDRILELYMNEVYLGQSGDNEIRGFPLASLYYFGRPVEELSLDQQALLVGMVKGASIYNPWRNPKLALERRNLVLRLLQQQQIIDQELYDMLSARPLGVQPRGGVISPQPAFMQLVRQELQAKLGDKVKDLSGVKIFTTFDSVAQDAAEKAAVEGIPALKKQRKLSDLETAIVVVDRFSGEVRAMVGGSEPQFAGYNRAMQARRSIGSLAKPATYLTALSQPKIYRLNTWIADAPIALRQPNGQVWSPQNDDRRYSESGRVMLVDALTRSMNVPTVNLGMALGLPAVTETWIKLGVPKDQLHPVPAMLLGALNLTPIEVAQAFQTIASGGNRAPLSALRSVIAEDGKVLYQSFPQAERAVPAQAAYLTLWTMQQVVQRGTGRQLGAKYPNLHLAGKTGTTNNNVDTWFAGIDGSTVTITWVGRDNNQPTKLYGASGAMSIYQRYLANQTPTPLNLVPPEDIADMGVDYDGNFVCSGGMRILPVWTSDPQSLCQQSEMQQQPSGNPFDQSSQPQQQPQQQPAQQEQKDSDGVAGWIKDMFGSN

Compound: CC(=O)OCC1=C(C(=O)O)N2C(=O)[C@@H](N)[C@H]2SC1 [7-aminocephalosporin acid (7-ACA), 7-aminocephalosporin acid]
- inhibition of moenomycinase (Moenomycinase [1]): inhibited

Compound: CC(=O)OCC1=C(C(=O)O)N2C(=O)[C@@H](NC(=O)CCC[C@@H](N)C(=O)O)[C@H]2SC1 [Cephalosporin C]
- inhibition of moenomycinase (Moenomycinase [1]): inhibited

Compound: CC(C)CCCC(C)CCC(C)CCC(C)(C)CCCCC(C)CCO[C@H](COP(=O)(O)O)C(=O)O (stereo partly shown) [Decahydro MB]
- % Inhibition of In Vitro Peptidoglycan Synthesis (transglycosylase [2]): 28%

Compound: O=C(O)CN(CCN(CC(=O)O)CC(=O)O)CC(=O)O [EDTA]
- inhibition of moenomycinase (Moenomycinase [1]): inhibited

Compound: C=C(CC=C(C)CCC=C(C)C)CCC(C)(C)C=CCCC(C)=CCO[C@H](CO)C(=O)O [MA]
- % Inhibition of In Vitro Peptidoglycan Synthesis (transglycosylase [2]): 67%
- MIC (Staph. aureus 503): > 100 µg/mL
- MIC (E. coli DC2): > 100 µg/mL
- MIC (Str. pyogenes 77): > 100 µg/mL

Compound: C=C(CC=C(C)CCC=C(C)C)CCC(C)(C)C=CCCC(C)=CCO[C@H](COP(=O)(O)O)C(=O)O [MB]
- inhibition of the transglycosylase reaction (transglycosylase [3]): 32.9%
- % Inhibition of In Vitro Peptidoglycan Synthesis (transglycosylase [2]): 94%
- MIC (Staph. aureus 503): 25 µg/mL (≈ 47.5 µM)
- MIC (E. coli DC2): > 100 µg/mL
- MIC (Str. pyogenes 77): 3.12 µg/mL (≈ 5.93 µM)

Compound: C=C(CC=C(C)CCC=C(C)C)CCC(C)(C)C=CCCC(C)=CCOC(COP(=O)(O)OC1OC(C(N)=O)C(C)(O)C(OC(N)=O)C1OC1OC(COC2OC(CO)C(O)C(O)C2O)C(OC2OC(C)C(OC3OC(C(=O)NC4=C(O)CCC4=O)C(O)C(O)C3O)C(O)C2NC(C)=O)C(O)C1NC(C)=O)C(=O)O (stereo not shown) [moenomycin A]
- Km (Moenomycinase [4]): 4 to 10 mM
- inhibition of the biosynthesis of the peptidoglycan framework of the bacterial cell wall [5]: inhibits

Compound: formalin
- inhibition of moenomycinase (Moenomycinase [1]): inhibited
